# Measurements published in PubChem BioAssay AID1919013 (Molecular Pharmacology Branch, DTP, NCI, 2023).
# System: LG0703-F498-PDC complex spheroid growth
# Experiment: Anticancer human tumor LG0703-F498-PDC patient-derived lung adenocarcinoma cell line growth inhibition [AhR]
# Conditions: for IC50: curve of first compound; for viability, T/C: stronger effect = lower value
# Summary of the method: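 Spheroids combined tumor cells with HUVEC endothelial cells and human MSCs as stroma. AhR antagonists were paired with standard or investigational drugs, each dosed in half-log steps down from near clinical Cmax, or from 10 microM where Cmax was unknown.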
# [1] = second compound 0.1 µM, first compound 0.0316 µM
# [2] = second compound 0.1 µM, first compound 0.1 µM
# [3] = second compound 0.316 µM, first compound 0.0316 µM
# [4] = second compound 0.316 µM, first compound 0.1 µM
# [5] = second compound 1 µM, first compound 0.0316 µM
# [6] = second compound 1 µM, first compound 0.1 µM
# [7] = second compound 3.16 µM, first compound 0.0316 µM
# [8] = second compound 3.16 µM, first compound 0.1 µM
# [9] = second compound 10 µM, first compound 0.0316 µM
# [10] = second compound 10 µM, first compound 0.1 µM
# [11] = second compound 0.1 µM, first compound 0.316 µM
# [12] = second compound 0.1 µM, first compound 1 µM
# [13] = second compound 0.1 µM, first compound 3.16 µM
# [14] = second compound 0.1 µM, first compound 10 µM
# [15] = second compound 0.316 µM, first compound 0.316 µM
# [16] = second compound 0.316 µM, first compound 1 µM
# [17] = second compound 0.316 µM, first compound 3.16 µM
# [18] = second compound 0.316 µM, first compound 10 µM
# [19] = second compound 1 µM, first compound 0.316 µM
# [20] = second compound 1 µM, first compound 1 µM
# [21] = second compound 1 µM, first compound 3.16 µM
# [22] = second compound 1 µM, first compound 10 µM
# [23] = second compound 3.16 µM, first compound 0.316 µM
# [24] = second compound 3.16 µM, first compound 1 µM
# [25] = second compound 3.16 µM, first compound 3.16 µM
# [26] = second compound 3.16 µM, first compound 10 µM
# [27] = second compound 10 µM, first compound 0.316 µM
# [28] = second compound 10 µM, first compound 1 µM
# [29] = second compound 10 µM, first compound 3.16 µM
# [30] = second compound 10 µM, first compound 10 µM
# 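Note: luminescence taken as a proxy for viable cell amount.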
# 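Throughout, for viability, T/C: percent of DMSO vehicle control where 100% means growth equal to vehicle.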
Compound,IC50 (second compound 0.1 µM) [nM],IC50 (second compound 0.316 µM) [nM],IC50 (second compound 1 µM) [nM],IC50 (second compound 3.16 µM) [nM],IC50 (second compound 10 µM) [nM],"viability, T/C [1] [%]","viability, T/C [2] [%]","viability, T/C [3] [%]","viability, T/C [4] [%]","viability, T/C [5] [%]","viability, T/C [6] [%]","viability, T/C [7] [%]","viability, T/C [8] [%]","viability, T/C [9] [%]","viability, T/C [10] [%]","viability, T/C [11] [%]","viability, T/C [12] [%]","viability, T/C [13] [%]","viability, T/C [14] [%]","viability, T/C [15] [%]",also measured
CC[C@@]1(O)C(=O)OCc2c1cc1n(c2=O)Cc2cc3c(CN(C)C)c(O)ccc3nc2-1 + Cc1ccccc1N=Nc1ccc(NC(=O)c2ccnn2C)c(C)c1,> 100,> 100,> 100,> 100,> 100,88.5,60.3,77.2,66.6,78.9,61.2,61.1,51.1,57.1,60.2,–,–,–,–,–,"viability, T/C (second compound 0.1 µM, first compound 0.000316 µM): 94.9%; viability, T/C (second compound 0.1 µM, first compound 0.001 µM): 116%; viability, T/C (second compound 0.1 µM, first compound 0.00316 µM): 92.2%; viability, T/C (second compound 0.1 µM, first compound 0.01 µM): 96.2%; viability, T/C (second compound 0.316 µM, first compound 0.000316 µM): 97.8%; viability, T/C (second compound 0.316 µM, first compound 0.001 µM): 93.6%; viability, T/C (second compound 0.316 µM, first compound 0.00316 µM): 78.5%; viability, T/C (second compound 0.316 µM, first compound 0.01 µM): 93.6%; viability, T/C (second compound 1 µM, first compound 0.000316 µM): 93.9%; viability, T/C (second compound 1 µM, first compound 0.001 µM): 82.2%; viability, T/C (second compound 1 µM, first compound 0.00316 µM): 83.5%; viability, T/C (second compound 1 µM, first compound 0.01 µM): 82.2%; viability, T/C (second compound 3.16 µM, first compound 0.000316 µM): 84.4%; viability, T/C (second compound 3.16 µM, first compound 0.001 µM): 83.9%; viability, T/C (second compound 3.16 µM, first compound 0.00316 µM): 86.1%; viability, T/C (second compound 3.16 µM, first compound 0.01 µM): 72.6%; viability, T/C (second compound 10 µM, first compound 0.000316 µM): 72.9%; viability, T/C (second compound 10 µM, first compound 0.001 µM): 80.5%; viability, T/C (second compound 10 µM, first compound 0.00316 µM): 78.7%; viability, T/C (second compound 10 µM, first compound 0.01 µM): 63.9%"
COc1cc(C2c3cc4c(cc3C(OC3OC5COC(C)OC5C(O)C3O)C3COC(=O)C23)OCO4)cc(OC)c1O (stereo not given) + Cc1ccccc1N=Nc1ccc(NC(=O)c2ccnn2C)c(C)c1,> 10000,> 10000,> 10000,> 10000,> 10000,94.8,103,96.2,93.5,79.2,104,85.5,94,77,96.5,86.2,95.2,91.3,72.1,106,"viability, T/C [16]: 79.5%; viability, T/C [17]: 68.4%; viability, T/C [18]: 59.3%; viability, T/C [19]: 99.4%; viability, T/C [20]: 79.8%; viability, T/C [21]: 65.2%; viability, T/C [22]: 62.7%; viability, T/C [23]: 93.5%; viability, T/C [24]: 80.2%; viability, T/C [25]: 74.2%; viability, T/C [26]: 59.6%; viability, T/C [27]: 93.5%; viability, T/C [28]: 73.5%; viability, T/C [29]: 81.4%; viability, T/C [30]: 70.6%"
Nc1ccn(C2OC(CO)C(O)C2(F)F)c(=O)n1 (stereo not given) + Cc1ccccc1N=Nc1ccc(NC(=O)c2ccnn2C)c(C)c1,< 31.6,< 31.6,< 31.6,< 31.6,< 31.6,40.4,34.1,35.8,36.6,37.6,33.7,30.8,38.2,39.3,36.5,31,31.8,31,28.1,30.5,"viability, T/C [16]: 32%; viability, T/C [17]: 31.9%; viability, T/C [18]: 22.6%; viability, T/C [19]: 34.1%; viability, T/C [20]: 31.4%; viability, T/C [21]: 29.5%; viability, T/C [22]: 22.1%; viability, T/C [23]: 31%; viability, T/C [24]: 27.8%; viability, T/C [25]: 24.6%; viability, T/C [26]: 24.5%; viability, T/C [27]: 37.5%; viability, T/C [28]: 37.8%; viability, T/C [29]: 36.9%; viability, T/C [30]: 26.2%"
